In US9181230B2, “Morpholine compounds and uses thereof” (Hoffmann-La Roche Inc., priority 2013, dated 2015):
Where a name gives a salt, the structure may show the parent alone.

Experiments:
rat TAAR1 = rat TAAR1 (Rattus norvegicus (Rat), UniProt Q923Y9); test: Radioligand binding assay on rat TAAR1; details: for Ki: rat TAAR1, membranes of HEK-293 cells, second value of the cell pair mouse/rat
Description: (§1) For the construction of expression plasmids the coding sequences of human, rat and mouse TAAR 1 were amplified from genomic DNA essentially as described by Lindemann et al.. The Expand High Fidelity PCR System (Roche Diagnostics) was used with 1.5 mM Mg^2+ and purified PCR products were cloned into pCR2.1-TOPO cloning vector (Invitrogen) following the instructions of the manufacturer. PCR products were subcloned into the pIRESneo2 vector (BD Clontech, Palo Alto, Calif.), and expression vectors were sequence verified before introduction in cell lines.
(§2) HEK293 cells (ATCC # CRL-1573) were cultured essentially as described by Lindemann et al. (2005). For the generation of stably transfected cell lines HEK293 cells were transfected with the pIRESneo2 expression plasmids containing the TAAR coding sequences (described above) with Lipofectamine 2000 (Invitrogen) according to the instructions of the manufacturer, and 24 hrs post transfection the culture medium was supplemented with 1 mg/ml G418 (Sigma, Buchs, Switzerland). After a culture period of about 10 d clones were isolated, expanded and tested for responsiveness to trace amines (all compounds purchased from Sigma) with the cAMP Biotrak Enzyme immunoassay (EIA) System (Amersham) following the non-acetylation EIA procedure provided by the manufacturer.
(B) Radioligand Binding Assay on Rat TAAR1
(§3) Membrane Preparation and Radioligand Binding.
(§4) HEK-293 cells stably expressing rat TAAR1 were maintained at 37° C. and 5% CO2 in DMEM high glucose medium, containing fetal calf serum (10%, heat inactivated for 30 min at 56° C.), penicillin/streptomycin (1%), and 375 μg/ml geneticin (Gibco). Cells were released from culture flasks using trypsin/EDTA, harvested, washed twice with ice-cold PBS (without Ca^2+ and Mg^2+), pelleted at 1,000 rpm for 5 min at 4° C., frozen and stored at −80° C. Frozen pellets were suspended in 20 ml HEPES-NaOH (20 mM, pH 7.4) containing 10 mM EDTA and homogenized with a Polytron (PT 6000, Kinematica) at 14,000 rpm for 20 s. The homogenate was centrifuged at 48,000×g for 30 min at 4° C. Subsequently, the supernatant was removed and discarded, and the pellet resuspended in 20 ml HEPES-NaOH (20 mM, pH 7.4) containing 0.1 mM EDTA using the Polytron (20 s at 14,000 rpm). This procedure was repeated and the final pellet resuspended in HEPES-NaOH containing 0.1 mM EDTA and homogenized using the Polytron. Typically, aliquots of 2 ml membrane portions were stored at −80° C. With each new membrane batch the dissociation constant (Kd) was determined via a saturation curve. […] Nonspecific binding was defined as the amount of ^3[H]-(S)-4-[(ethyl-phenyl-amino)-methyl]-4,5-dihydro-oxazol-2-ylamine bound in the presence of 10 μM unlabeled ligand. All compounds were tested at a broad range of concentrations (10 pM to 10 μM) in duplicates. […] The 96 deep well plates were incubated for 1 hr at 4° C. Incubations were terminated by rapid filtration through Unifilter-96 plates (Packard Instrument Company) and glass filters GF/C (Perkin Elmer) presoaked for 1 hr in polyethylenimine (0.3%) and washed 3 times with 1 ml of cold binding buffer. After addition of 45 μl of Microscint 40 (PerkinElmer) the Unifilter-96 plate was sealed and after 1 hr the ratioactivity counted using a TopCount Microplate Scintillation Counter (Packard Instrument Company).

mouse TAAR1 = mouse TAAR1 (Mus musculus (Mouse), UniProt Q923Y8); test: Radioligand binding assay on mouse TAAR1; details: for Ki: mouse TAAR1, membranes of HEK-293 cells, first value of the cell pair mouse/rat
Sequence of mouse TAAR1 (Q923Y8 whole entry): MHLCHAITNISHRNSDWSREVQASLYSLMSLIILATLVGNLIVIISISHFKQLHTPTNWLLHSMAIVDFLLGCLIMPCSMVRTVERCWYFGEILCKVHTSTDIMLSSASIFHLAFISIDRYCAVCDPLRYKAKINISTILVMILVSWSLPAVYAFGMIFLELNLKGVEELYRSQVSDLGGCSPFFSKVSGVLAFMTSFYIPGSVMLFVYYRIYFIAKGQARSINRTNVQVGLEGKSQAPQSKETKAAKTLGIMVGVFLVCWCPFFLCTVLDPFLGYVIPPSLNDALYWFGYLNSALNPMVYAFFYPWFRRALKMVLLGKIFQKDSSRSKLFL
Description: as §1, §2
(A) Radioligand Binding Assay on Mouse TAAR1
as §3
as §4, with “expressing mouse” for “expressing rat”

Sequence of rat TAAR1 (Q923Y9 whole entry): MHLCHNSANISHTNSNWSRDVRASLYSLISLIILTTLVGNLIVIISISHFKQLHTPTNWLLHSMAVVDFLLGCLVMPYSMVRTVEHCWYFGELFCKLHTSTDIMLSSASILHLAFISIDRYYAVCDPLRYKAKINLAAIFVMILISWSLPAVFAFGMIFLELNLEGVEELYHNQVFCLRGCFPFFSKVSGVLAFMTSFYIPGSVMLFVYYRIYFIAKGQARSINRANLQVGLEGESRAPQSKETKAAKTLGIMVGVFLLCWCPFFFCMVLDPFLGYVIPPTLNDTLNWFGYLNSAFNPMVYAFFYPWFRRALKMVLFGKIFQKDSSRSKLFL

SMILES	Ki (rat TAAR1)	Ki (mouse TAAR1)	also measured
N#Cc1cccc(-c2cc(-c3ccc(C4CNCCO4)cc3)n[nH]2)c1 (stereo not drawn) [Example 12, 3-[5-(4-Morpholin-2-yl-phenyl)-2H-pyrazol-3-yl]-benzonitrile hydrochloride]	0.0615 µM	0.0005 µM	
Fc1ccc(-c2nnc(-c3ccc([C@H]4CNCCO4)cc3)o2)cc1 [Example 17, (S)-2-(4-(5-(4-Fluorophenyl)-1,3,4-oxadiazol-2-yl)phenyl)morpholine hydrochloride]	0.229 µM	0.0032 µM	
Fc1ccc(-n2cc(-c3ccc([C@H]4CNCCO4)cc3)cn2)cc1 [Example 19, (S)-2-(4-(1-(4-Fluorophenyl)-1H-pyrazol-4-yl)phenyl)morpholine hydrochloride]	0.0669 µM	0.0015 µM	
Fc1ccc(-c2nc(-c3ccc([C@H]4CNCCO4)cc3)n[nH]2)cc1 [Example 20, (S)-2-(4-(5-(4-Fluorophenyl)-1H-1,2,4-triazol-3-yl)phenyl)morpholine hydrochloride]	0.0779 µM	0.0012 µM	
O=C(Nc1n[nH]c2cc(C3CNCCO3)ccc12)c1ccc(F)cc1 (stereo not drawn) [Example 21, 4-Fluoro-N-(6-(morpholin-2-yl)-1H-indazol-3-yl)benzamide hydrochloride]	0.895 µM	0.0617 µM	
Fc1ccc([C@@H]2COC(c3ccc([C@H]4CNCCO4)cc3)=N2)cc1 [Example 22, (S)-2-{4-[(R)-4-(4-Fluoro-phenyl)-4,5-dihydro-oxazol-2-yl]-phenyl}-morpholine]	1.51 µM	0.0318 µM	
Fc1ccc(-c2nc(-c3ccc([C@@H]4CNCCO4)cc3)n[nH]2)cc1 [Example 23, (R)-2-(4-(5-(4-Fluorophenyl)-1H-1,2,4-triazol-3-yl)phenyl)morpholine hydrochloride]	0.0196 µM	0.0015 µM	
c1cc([C@H]2CNCCO2)ccc1-c1cc(C2CCOCC2)[nH]n1 [Example 24, (S)-2-(4-(5-(Tetrahydro-2H-pyran-4-yl)-1H-pyrazol-3-yl)phenyl)morpholine hydrochloride]	0.0722 µM	> 20 µM	
Fc1ccc(-n2cc(-c3ccc([C@@H]4CNCCO4)cc3)cn2)cc1 [Example 26, (R)-2-(4-(1-(4-Fluorophenyl)-1H-pyrazol-4-yl)phenyl)morpholine hydrochloride]	0.0122 µM	0.0006 µM	
N#Cc1ccc(-c2cc(-c3ccc([C@H]4CNCCO4)cc3)n[nH]2)cc1 [Example 28, (S)-4-(3-(4-(Morpholin-2-yl)phenyl)-1H-pyrazol-5-yl)benzonitrile hydrochloride]	0.0168 µM	0.001 µM	
Fc1ccc(-c2cc(-c3ccc([C@H]4CNCCO4)cc3)n[nH]2)cc1 [Example 29, (S)-2-(4-(5-(4-Fluorophenyl)-1H-pyrazol-3-yl)phenyl)morpholine hydrochloride]	0.0044 µM	0.0007 µM	
Fc1ccc(-c2cc(-c3ccc([C@@H]4CNCCO4)cc3)n[nH]2)cc1 [Example 31, (R)-2-(4-(5-(4-Fluorophenyl)-1H-pyrazol-3-yl)phenyl)morpholine hydrochloride]	0.0036 µM	0.001 µM	
N#Cc1ccc(-c2cc(-c3ccc([C@@H]4CNCCO4)cc3)n[nH]2)cc1 [Example 32, (R)-4-(3-(4-(Morpholin-2-yl)phenyl)-1H-pyrazol-5-yl)benzonitrile hydrochloride]	0.0154 µM	0.0019 µM	
Fc1ccc(-c2nnc(-c3ccc([C@@H]4CNCCO4)cc3)o2)cc1 [Example 34, (R)-2-(4-(5-(4-Fluorophenyl)-1,3,4-oxadiazol-2-yl)phenyl)morpholine hydrochloride]	0.156 µM	0.004 µM	
Clc1ccc(-c2cc(-c3ccc([C@H]4CNCCO4)cc3)n[nH]2)cn1 [Example 37, (S)-2-{4-[5-(6-Chloro-pyridin-3-yl)-1H-pyrazol-3-yl]-phenyl}-morpholine hydrochloride]	0.304 µM	0.004 µM	
Clc1ccc(-c2cc(-c3ccc([C@@H]4CNCCO4)cc3)n[nH]2)cn1 [Example 38, (R)-2-{4-[5-(6-Chloro-pyridin-3-yl)-1H-pyrazol-3-yl]-phenyl}-morpholine hydrochloride]	0.0257 µM	0.0027 µM	
Fc1ccc(-c2cc(-c3ccc([C@H]4CNCCO4)cc3F)n[nH]2)cc1 [Example 40, (S)-2-(3-Fluoro-4-(5-(4-fluorophenyl)-1H-pyrazol-3-yl)phenyl)morpholine hydrochloride]	0.0155 µM	0.0012 µM	
Fc1ccc(-c2cc(-c3ccc([C@@H]4CNCCO4)cc3F)n[nH]2)cc1 [Example 41, (R)-2-(3-Fluoro-4-(5-(4-fluorophenyl)-1H-pyrazol-3-yl)phenyl)morpholine hydrochloride]	0.0043 µM	0.0011 µM	
FC(F)(F)c1cnc2[nH]c3ccc([C@H]4CNCCO4)cc3c2c1 [Example 46, (S)-2-(3-(Trifluoromethyl)-9H-pyrido[2,3-b]indol-6-yl)morpholine hydrochloride]	0.0698 µM	0.0023 µM	
Clc1cnc2[nH]c3ccc([C@H]4CNCCO4)cc3c2c1 [Example 47, (S)-2-(3-Chloro-9H-pyrido[2,3-b]indol-6-yl)morpholine hydrochloride]	0.075 µM	0.0032 µM	
FC(F)(F)c1cnc2[nH]c3ccc([C@@H]4CNCCO4)cc3c2c1 [Example 48, (R)-2-(3-(Trifluoromethyl)-9H-pyrido[2,3-b]indol-6-yl)morpholine hydrochloride]			Ki (rat TAAR1; hydrochloride): 0.0639 µM; Ki (mouse TAAR1; hydrochloride): 0.0081 µM
FC(F)(F)c1cnc2[nH]c3ccc([C@@H]4CNCCO4)cc3c2c1 [Example 50, (R)-2-(3-(Trifluoromethyl)-9H-pyrido[2,3-b]indol-6-yl)morpholine hydrochloride]			Ki (rat TAAR1; hydrochloride): 0.0303 µM; Ki (mouse TAAR1; hydrochloride): 0.0082 µM
FC(F)(F)c1ccc(-c2nc3ccc([C@@H]4CNCCO4)cc3o2)cn1 [Example 53, (R)-6-(Morpholin-2-yl)-2-(6-(trifluoromethyl)pyridin-3-yl)benzo[d]oxazole hydrochloride]	0.226 µM	0.0463 µM	
CCN(C[C@H]1COC(N)=N1)c1ccccc1 [^3[H]-(S)-4-[(ethyl-phenyl-amino)-methyl]-4,5-dihydro-oxazol-2-ylamine, reference compound]			Kd (rat TAAR1; rat TAAR1, saturation curve, usual value per membrane batch, read-out: dissociation constant (Kd) of the radioligand): ~2.3 nM; Kd (mouse TAAR1; mouse TAAR1, saturation curve, usual value per membrane batch, read-out: dissociation constant (Kd) of the radioligand): ~0.7 nM
